According to patent US20160046610A1, “3-HETEROARYL SUBSTITUTED INDAZOLES” (BAYER PHARMA AKTIENGESELLSCHAFT, priority 2013, published 2016):
Like-named read-outs stand apart in the source and are kept apart here.

Key:
[1] = target: T1, catalytic domain of human Bub1 (amino acids 704-1085) (Homo sapiens, UniProt O43683); experiment: Bub1 kinase assay (TR-FRET); format: biochemical
T1 construct: catalytic domain of human Bub1 (amino acids 704-1085); His6 (N); made in house; host or cells: Hi5 insect cells
T1 sequence (O43683 704-1085): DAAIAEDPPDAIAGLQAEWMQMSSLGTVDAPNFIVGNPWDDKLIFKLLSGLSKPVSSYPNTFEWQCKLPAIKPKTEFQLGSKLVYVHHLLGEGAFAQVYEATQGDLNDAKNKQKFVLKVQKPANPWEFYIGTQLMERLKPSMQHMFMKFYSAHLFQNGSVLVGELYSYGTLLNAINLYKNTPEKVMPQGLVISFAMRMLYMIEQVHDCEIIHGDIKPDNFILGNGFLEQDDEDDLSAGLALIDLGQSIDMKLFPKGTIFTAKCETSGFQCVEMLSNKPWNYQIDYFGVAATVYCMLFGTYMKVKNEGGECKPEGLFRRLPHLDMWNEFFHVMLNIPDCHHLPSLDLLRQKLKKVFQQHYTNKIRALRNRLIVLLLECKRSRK
Experimental: To this end, 100-fold concentrated compound solutions (in DMSO) were previously prepared by serial dilution (1:3.4) of 2 mM stocks in a clear low volume 384-well source microtiter plate (Greiner Bio-One, Frickenhausen, Germany), from which 50 nl of compounds were transferred into a black low volume test microtiter plate from the same supplier. […] The resulting mixture (5 μL final volume) was incubated at 22° C. during 60 min., and the reaction was stopped by the addition of 5 μL of an aqueous EDTA-solution (50 mM EDTA, in 100 mM HEPES pH 7.5 and 0.2% (w/v) bovine serum albumin) which also contained the TR-FRET detection reagents (0.2 μM streptavidin-XL665 [Cisbio Bioassays, Codolet, France] and 1 nM anti-phosho-Serine antibody [Merck Millipore, cat. #35-001] and 0.4 nM LANCE EU-W1024 labeled anti-mouse IgG antibody [Perkin-Elmer, product no. AD0077, alternatively a Terbium-cryptate-labeled anti-mouse IgG antibody from Cisbio Bioassays can be used]). The stopped reaction mixture was further incubated 1 h at 22° C. in order to allow the formation of complexes between peptides and detection reagents. Subsequently, the amount of product was evaluated by measurement of the resonance energy transfer from the Eu-chelate-antibody complex recognizing the Phosphoserine residue to the streptavidin-XL665 bound to the biotin moiety of the peptide. […] IC50 values were calculated by fitting the normalized inhibition data to a 4-parameter logistic equation (Minimum, Maximum, IC50, Hill; Y=Max+(Min−Max)/(1+(X/IC50)Hill)).

HeLa cell line = experiment: Proliferation assay (HeLa cell line), crystal violet staining; format: cell-based; conditions: Homo sapiens, 96 h, read-out: Biological Assay 2: Proliferation assay (HeLa cell line) median IC50
Experimental: Cultivated tumor cells (cells were ordered from ATCC, except HeLa-MaTu and HeLa-MaTu-ADR, which were ordered from EPO-GmbH, Berlin) were plated at a density of 1000 to 5000 cells/well, depending on the growth rate of the respective cell line, in a 96-well multititer plate in 200 μL of their respective growth medium supplemented 10% fetal calf serum. After 24 hours, the cells of one plate (zero-point plate) were stained with crystal violet (see below), while the medium of the other plates was replaced by fresh culture medium (200 μL), to which the test substances were added in various concentrations (0 μM, as well as in the range of 0.001-10 μM; the final concentration of the solvent dimethyl sulfoxide was 0.5%). The cells were incubated for 4 days in the presence of test substances. Cell proliferation was determined by staining the cells with crystal violet: the cells were fixed by adding 20 μl/measuring point of an 11% glutaric aldehyde solution for 15 minutes at room temperature. After three washing cycles of the fixed cells with water, the plates were dried at room temperature. The cells were stained by adding 100 μl/measuring point of a 0.1% crystal violet solution (pH 3.0). After three washing cycles of the stained cells with water, the plates were dried at room temperature. The dye was dissolved by adding 100 μl/measuring point of a 10% acetic acid solution. Absorption was determined by photometry at a wavelength of 595 nm. The change of cell number, in percent, was calculated by normalization of the measured values to the absorption values of the zero-point plate (=0%) and the absorption of the untreated (0 μm) cells (=100%). The IC50 values were determined by means of a 4 parameter fit using the company's own software.

[2] = TR-FRET, recombinant catalytic domain of human Bub1, ATP 10 μM, peptide substrate 1 μM, median value, read-out: Biological Assay 1: Bub1 kinase assay median IC50

Row | SMILES | IC50 [1, 2] | IC50 (HeLa cell line; HeLa) | IC50 [1] | IC50 (HeLa cell line; HeLa cells, incubated for 4 days with test substance, crystal violet staining, median value)
1 | CCOc1cc(F)c(Cn2nc(-c3ncc(OC)c(Nc4cn[nH]c4)n3)c3ccccc32)c(F)c1 [Example 2-10-2, 2-[1-(4-ethoxy-2,6-difluorobenzyl)-1H-indazol-3-yl]-5-methoxy-N-(1H-pyrazol-4-yl)pyrimidin-4-amine] | 4.7 nM | > 10000 nM | – | –
2 | Fc1ccc(Cn2nc(-c3cc(Nc4ccncn4)ccn3)c3ccccc32)c(F)c1 [Example 2-11-1, N-{2-[1-(2,4-difluorobenzyl)-1H-indazol-3-yl]-pyridin-4-yl}pyrimidin-4-amine] | – | – | 66 nM | > 10000 nM
3 | CCOc1cc(F)c(Cn2nc(-c3ncc(OC)c(Nc4ccccc4C(N)=O)n3)c3ccccc32)c(F)c1 [Example 2-12-1, 2-({2-[1-(4-ethoxy-2,6-difluorobenzyl)-1H-indazol-3-yl]-5-methoxypyrimidin-4-yl}amino)benzamide] | 920 nM | > 10000 nM | – | –
4 | CCOc1cc(F)c(Cn2nc(-c3ncc(OC)c(Nc4ccccc4C(=O)NC)n3)c3ccccc32)c(F)c1 [Example 2-12-2, 2-({2-[1-(4-ethoxy-2,6-difluorobenzyl)-1H-indazol-3-yl]-5-methoxypyrimidin-4-yl}amino)-N-methylbenzamide] | 1100 nM | 1100 nM | – | –

The remaining lines, values ahead:

Row | IC50 [1, 2] | IC50 (HeLa cell line; HeLa) | IC50 [1] | IC50 (HeLa cell line; HeLa cells, incubated for 4 days with test substance, crystal violet staining, median value) | SMILES
5 | 6800 nM | 1200 nM | – | – | CCOc1cc(F)c(Cn2nc(-c3ncc(OC)c(Nc4ccc(F)cc4C(=O)NC)n3)c3ccccc32)c(F)c1 [Example 2-12-3, 2-({2-[1-(4-ethoxy-2,6-difluorobenzyl)-1H-indazol-3-yl]-5-methoxypyrimidin-4-yl}amino)-5-fluoro-N-methylbenzamide]
6 | 110 nM | 2400 nM | – | – | CCOc1cc(F)c(Cn2nc(-c3ncc(OC)c(Nc4ccc(F)cc4C(N)=O)n3)c3ccccc32)c(F)c1 [Example 2-12-4, 2-({2-[1-(4-ethoxy-2,6-difluorobenzyl)-1H-indazol-3-yl]-5-methoxypyrimidin-4-yl}amino)-5-fluorobenzamide]
